According to publication PMC4805124 (Biochemistry, 2015):
Values joined by “and” are separate entries in the source; they are usually repeats but may differ in a detail not shown here. Equal entries are not always repeated. Where two headings read alike, the source gives them in different places.

Assays:
[1] = biological target: T1, InhA^WT (Mycobacterium tuberculosis, UniProt P9WGR1); assay type: biochemical
[2] = biological target: T1, InhA^WT; assay type: binding
[3] = tested on: InhA; conditions: cited from earlier work

T1 sequence (P9WGR1 whole entry, looked up): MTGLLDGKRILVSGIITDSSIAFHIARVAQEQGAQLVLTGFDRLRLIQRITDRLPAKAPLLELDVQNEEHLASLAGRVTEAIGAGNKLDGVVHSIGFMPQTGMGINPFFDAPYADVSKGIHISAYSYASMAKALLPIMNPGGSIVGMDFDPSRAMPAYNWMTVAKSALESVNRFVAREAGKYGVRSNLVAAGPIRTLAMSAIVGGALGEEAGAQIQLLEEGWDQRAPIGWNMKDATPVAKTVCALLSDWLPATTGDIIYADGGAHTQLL

Compound | Ki^app/Ki*^app [1] | k5 [1] | k6 [1] | tR (1/k6) [1] | ΔΔG [1] | Ki ([1]; read-out: Ki*^app) | Ki ([1]; read-out: Ki^app) | tR (^32P- NAD) [2] | residence time [3] | Ki ([3]; slow-onset, tight binding inhibitor)
CCCCCCc1ccc(Oc2ccccc2C)c(O)c1 [PT70, 2-(o-tolyoxy)-5-hexylphenol] | 10.8 | 0.40 ± 0.01 min⁻¹ | 0.025 ± 0.002 min⁻¹ | 40 ± 2 min | 1.41 and 1.41 kcal mol^−1 | 24 nM and 23.7 nM | 256 ± 38 nM | 37 ± 2 min | 40 min | 0.6 nM
Cc1ccccc1Oc1ccc(Cn2cc(-c3ccccc3)nn2)cc1O [PT163, 5-((4-phenyl-1H-1,2,3-triazol-1-yl)methyl)-2-(o-tolyloxy)phenol] | – | 0.44 ± 0.06 min⁻¹ | 0.011 ± 0.001 min⁻¹ | 94 ± 3 min | 2.26 kcal/mol | – | – | 114 min and 114 ± 18 min | – | –
